Measured values: patent US8063048B2, “Acetylenyl-pyrazolo-pyrimidine derivatives” (Hoffmann-La Roche Inc., priority 2005, dated 2011)

| Structure (SMILES) | melting point [°C] |
| --- | --- |
| FC(F)(F)c1ccc(-c2cc(C(F)(F)F)n3ncc(C#Cc4cnc(Cl)nc4)c3n2)cc1 [Example 182, 3-(2-Chloro-pyrimidin-5-ylethynyl)-7-trifluoromethyl-5-(4-trifluoromethyl-phenyl)-pyrazolo[1,5-a]pyrimidine] | 157 to 159 |
| Fc1ccc(C#Cc2cnn3c(C(F)(F)F)cc(-c4ccc(C(F)(F)F)cc4)nc23)cn1 [Example 149, 3-(6-Fluoro-pyridin-3-ylethynyl)-7-trifluoromethyl-5-(4-trifluoromethyl-phenyl)-pyrazolo[1,5-a]pyrimidine] | 213 to 216 |
| NCCNS(=O)(=O)c1ccc(C#Cc2cnn3c(C(F)(F)F)cc(-c4cccc(C(F)(F)F)c4)nc23)s1 [Example 262, 5-[7-Trifluoromethyl-5-(3-trifluoromethyl-phenyl)-pyrazolo[1,5-a]pyrimidin-3-ylethynyl]-thiophene-2-sulfonic acid (2-amino-ethyl)-amide] | 196 |
| NS(=O)(=O)c1ccc(C#Cc2cnn3c(C(F)F)cc(-c4ccc(C(F)(F)F)cc4)nc23)c(F)c1 [Example 48, 4-[7-Difluoromethyl-5-(4-trifluoromethyl-phenyl)-pyrazolo[1,5-a]pyrimidin-3-ylethynyl]-3-fluoro-benzenesulfonamide] | 230 to 232 |
| CC(=O)Nc1ncc(C#Cc2cnn3c(C(F)(F)F)cc(-c4ccc(C(F)(F)F)cc4)nc23)cn1 [Example 245, N-{5-[7-Trifluoromethyl-5-(4-trifluoromethyl-phenyl)-pyrazolo[1,5-a]pyrimidin-3-ylethynyl]-pyrimidin-2-yl}-acetamide] | 293 |
| Cc1cc(-c2cc(C(F)(F)F)n3ncc(C#Cc4cccnc4)c3n2)ccc1Cl [Example 101, 5-(4-Chloro-3-methyl-phenyl)-3-pyridin-3-ylethynyl-7-trifluoromethyl-pyrazolo[1,5-a]pyrimidine] | 196 |
| Cc1ncccc1C#Cc1cnn2c(C(F)(F)F)cc(-c3ccc(C(F)(F)F)cc3)nc12 [Example 12, 3-(2-Methyl-pyridin-3-ylethynyl)-7-trifluoromethyl-5-(4-trifluoromethyl-phenyl)-pyrazolo[1,5-a]pyrimidine] | 198 |
| N#Cc1ccc(C#Cc2cnn3c(C(F)(F)F)cc(-c4ccc(C(F)(F)F)cc4)nc23)cn1 [Example 288, 5-[7-Trifluoromethyl-5-(4-trifluoromethyl-phenyl)-pyrazolo[1,5-a]pyrimidin-3-ylethynyl]-pyridine-2-carbonitrile] | 212 |
| Cc1cc(-c2cc(C(F)F)n3ncc(C#Cc4ccc(S(N)(=O)=O)cc4)c3n2)ccc1Cl [Example 173, 4-[5-(4-Chloro-3-methyl-phenyl)-7-difluoromethyl-pyrazolo[1,5-a]pyrimidin-3-ylethynyl]-benzenesulfonamide] | 237 |
| CC(C)(CO)NS(=O)(=O)c1cnc(C#Cc2cnn3c(C(F)(F)F)cc(-c4ccc(Cl)c(Cl)c4)nc23)s1 [Example 90, 2-[5-(3,4-Dichloro-phenyl)-7-trifluoromethyl-pyrazolo[1,5-a]pyrimidin-3-ylethynyl]-thiazole-5-sulfonic acid (2-hydroxy-1,1-dimethyl-ethyl)-amide] | 220 to 223 |
| Cc1cc(-c2ccc(Cl)cc2)cn2c(C#Cc3cncc(S(=O)(=O)NC(C)(C)CO)c3)cnc12 [Example 230, 5-[6-(4-Chloro-phenyl)-8-methyl-imidazo[1,2-a]pyridin-3-ylethynyl]-pyridine-3-sulfonic acid (2-hydroxy-1,1-dimethyl-ethyl)-amide] | 215 to 217 |
| CN(C)CCNS(=O)(=O)c1ccc(C#Cc2cnn3c(C(F)F)cc(-c4ccc(C(F)(F)F)cc4)nc23)s1 [Example 253, 5-[7-Difluoromethyl-5-(4-trifluoromethyl-phenyl)-pyrazolo[1,5-a]pyrimidin-3-ylethynyl]-thiophene-2-sulfonic acid (2-dimethylamino-ethyl)-amide] | 132 |
| NS(=O)(=O)c1ccc(C#Cc2cnn3c(C4CC4)cc(-c4ccc(Cl)c(Cl)c4)nc23)cc1 [Example 88, 4-[7-Cyclopropyl-5-(3,4-dichloro-phenyl)-pyrazolo[1,5-a]pyrimidin-3-ylethynyl]-benzenesulfonamide] | 259 to 261 |
| Cc1cc(-c2cc(C(F)(F)F)n3ncc(C#Cc4ccc(S(N)(=O)=O)s4)c3n2)ccc1Cl [Example 114, 5-[5-(4-Chloro-3-methyl-phenyl)-7-trifluoromethyl-pyrazolo[1,5-a]pyrimidin-3-ylethynyl]-thiophene-2-sulfonic acid amide] | 216 |
| CC(C)(CO)NS(=O)(=O)c1ccc(C#Cc2cnn3c(C(F)F)cc(-c4cccc(C(F)(F)F)c4)nc23)s1 [Example 170, 5-[7-Difluoromethyl-5-(3-trifluoromethyl-phenyl)-pyrazolo[1,5-a]pyrimidin-3-ylethynyl]-thiophene-2-sulfonic acid (2-hydroxy-1,1-dimethyl-ethyl)-amide] | 168 |
| N#Cc1cc(-c2ccc(C(F)(F)F)cc2)cn2c(C#Cc3ccc(S(N)(=O)=O)s3)cnc12 [Example 214, 5-[8-Cyano-6-(4-trifluoromethyl-phenyl)-imidazo[1,2-a]pyridin-3-ylethynyl]-thiophene-2-sulfonic acid amide] | 267 to 269 |

| Structure (SMILES) | melting point [°C] |
| --- | --- |
| NS(=O)(=O)c1cc(C#Cc2ncn3c(C(F)F)cc(-c4ccc(C(F)(F)F)cc4)nc23)c(F)cc1F [Example 274, 5-[4-Difluoromethyl-2-(4-trifluoromethyl-phenyl)-imidazo[1,5-a]pyrimidin-8-ylethynyl]-2,4-difluoro-benzenesulfonamide] | 149 |
| FC(F)(F)c1ccc(-c2cc(C(F)(F)F)n3ncc(C#Cc4cccnc4C4CC4)c3n2)cc1 [Example 8, 3-(2-Cyclopropyl-pyridin-3-ylethynyl)-7-trifluoromethyl-5-(4-trifluoromethyl-phenyl)-pyrazolo[1,5-a]pyrimidine] | 202 |
| Cc1cc(-c2cc(C(F)F)n3ncc(C#Cc4cc(S(N)(=O)=O)c(F)cc4F)c3n2)ccc1Cl [Example 174, 5-[5-(4-Chloro-3-methyl-phenyl)-7-difluoromethyl-pyrazolo[1,5-a]pyrimidin-3-ylethynyl]-2,4-difluoro-benzenesulfonamide] | 270 |
| NS(=O)(=O)c1cccc(C#Cc2cnc3c(C(F)(F)F)cc(-c4ccc(C(F)(F)F)cc4)cn23)c1 [Example 194, 3-[8-Trifluoromethyl-6-(4-trifluoromethyl-phenyl)-imidazo[1,2-a]pyridin-3-ylethynyl]-benzenesulfonamide] | 240 |
| Cc1cc(-c2cc(C(F)F)n3ncc(C#Cc4ccc(S(N)(=O)=O)s4)c3n2)ccc1Cl [Example 172, 5-[5-(4-Chloro-3-methyl-phenyl)-7-difluoromethyl-pyrazolo[1,5-a]pyrimidin-3-ylethynyl]-thiophene-2-sulfonic acid amide] | 216 |
| O=S(=O)(NCCN1CCOCC1)c1ccc(C#Cc2cnn3c(C(F)(F)F)cc(-c4ccc(C(F)(F)F)cc4)nc23)s1 [Example 158, 5-[7-Trifluoromethyl-5-(4-trifluoromethyl-phenyl)-pyrazolo[1,5-a]pyrimidin-3-ylethynyl]-thiophene-2-sulfonic acid (2-morpholin-4-yl-ethyl)-amide] | 219 |
| Cc1cc(-c2cc(C(F)F)n3ncc(C#Cc4ccc(S(=O)(=O)NC(C)(C)C)s4)c3n2)ccc1Cl [Example 171, 5-[5-(4-Chloro-3-methyl-phenyl)-7-difluoromethyl-pyrazolo[1,5-a]pyrimidin-3-ylethynyl]-thiophene-2-sulfonic acid tert-butylamide] | 220 |
| CC(C)(CO)NS(=O)(=O)c1cnc(C#Cc2cnn3c(C4CC4)cc(-c4ccc(C(F)(F)F)cc4)nc23)s1 [Example 82, 2-[7-Cyclopropyl-5-(4-trifluoromethyl-phenyl)-pyrazolo[1,5-a]pyrimidin-3-ylethynyl]-thiazole-5-sulfonic acid (2-hydroxy-1,1-dimethyl-ethyl)-amide] | 243 to 245 |
| Cc1cc(-c2ccc(C(F)(F)F)cc2)nc2c(C#Cc3cccc(S(N)(=O)=O)c3)cnn12 [Example 151, 3-[7-Methyl-5-(4-trifluoromethyl-phenyl)-pyrazolo[1,5-a]pyrimidin-3-ylethynyl]-benzenesulfonamide] | 214 to 216 |
| O=S(=O)(NCCO)c1ccc(C#Cc2cnn3c(C(F)F)cc(-c4ccc(C(F)(F)F)cc4)nc23)cc1 [Example 140, 4-[7-Difluoromethyl-5-(4-trifluoromethyl-phenyl)-pyrazolo[1,5-a]pyrimidin-3-ylethynyl]-N-(2-hydroxy-ethyl)-benzenesulfonamide] | 191 to 194 |
| CC(C)(CO)NS(=O)(=O)c1cccc(C#Cc2cnn3c(C(F)(F)F)cc(-c4ccc(C(F)(F)F)cc4)nc23)c1 [Example 4, N-(2-Hydroxy-1,1-dimethyl-ethyl)-3-[7-trifluoromethyl-5-(4-trifluoromethyl-phenyl)-pyrazolo[1,5-a]pyrimidin-3-ylethynyl]-benzenesulfonamide] | 201 to 204 |
| Cc1ccc(C#Cc2cnn3c(C(F)(F)F)cc(-c4ccc(C(F)(F)F)cc4)nc23)cc1S(N)(=O)=O [Example 35, 2-Methyl-5-[7-trifluoromethyl-5-(4-trifluoromethyl-phenyl)-pyrazolo[1,5-a]pyrimidin-3-ylethynyl]-benzenesulfonamide] | 255 to 267 |
| NS(=O)(=O)c1cccc(C#Cc2cnn3c(C4CC4)cc(-c4ccc(C(F)(F)F)cc4)nc23)c1 [Example 84, 3-[7-Cyclopropyl-5-(4-trifluoromethyl-phenyl)-pyrazolo[1,5-a]pyrimidin-3-ylethynyl]-benzenesulfonamide] | 262 to 264 |
| NS(=O)(=O)c1cccc(C#Cc2cnn3c(C4CC4)cc(-c4ccc(Cl)c(Cl)c4)nc23)c1 [Example 87, 3-[7-Cyclopropyl-5-(3,4-dichloro-phenyl)-pyrazolo[1,5-a]pyrimidin-3-ylethynyl]-benzenesulfonamide] | 200 to 202 |
| Nc1ccc(C#Cc2ncn3c(C(F)(F)F)cc(-c4ccc(C(F)(F)F)cc4)nc23)cn1 [Example 284, 5-[4-Trifluoromethyl-2-(4-trifluoromethyl-phenyl)-imidazo[1,5-a]pyrimidin-8-ylethynyl]-pyridin-2-ylamine] | 225 |
